According to US20260184693A1, “INHIBITORS OF SOLUTE CARRIER FAMILY 6A MEMBER 19 (SLC6A19) AND METHODS OF USE THEREOF” (Maze Therapeutics, Inc., priority 2022, published 2026):

How the values were obtained:
human SLC6A19 [1] = biological target: T1, human SLC6A19 (Homo sapiens, UniProt Q695T7); assay: Example B-1: L-[3H]leucine uptake, liquid scintillation, in CHO cells with doxycycline-inducible expression of human SLC6A19 and TMEM27; assay type: cell-based; conditions: read-out: SLC6A19_Radioligand Uptake Assay IC50
T1 construct: expressed in transfected cells
T1 sequence (Q695T7 1-634): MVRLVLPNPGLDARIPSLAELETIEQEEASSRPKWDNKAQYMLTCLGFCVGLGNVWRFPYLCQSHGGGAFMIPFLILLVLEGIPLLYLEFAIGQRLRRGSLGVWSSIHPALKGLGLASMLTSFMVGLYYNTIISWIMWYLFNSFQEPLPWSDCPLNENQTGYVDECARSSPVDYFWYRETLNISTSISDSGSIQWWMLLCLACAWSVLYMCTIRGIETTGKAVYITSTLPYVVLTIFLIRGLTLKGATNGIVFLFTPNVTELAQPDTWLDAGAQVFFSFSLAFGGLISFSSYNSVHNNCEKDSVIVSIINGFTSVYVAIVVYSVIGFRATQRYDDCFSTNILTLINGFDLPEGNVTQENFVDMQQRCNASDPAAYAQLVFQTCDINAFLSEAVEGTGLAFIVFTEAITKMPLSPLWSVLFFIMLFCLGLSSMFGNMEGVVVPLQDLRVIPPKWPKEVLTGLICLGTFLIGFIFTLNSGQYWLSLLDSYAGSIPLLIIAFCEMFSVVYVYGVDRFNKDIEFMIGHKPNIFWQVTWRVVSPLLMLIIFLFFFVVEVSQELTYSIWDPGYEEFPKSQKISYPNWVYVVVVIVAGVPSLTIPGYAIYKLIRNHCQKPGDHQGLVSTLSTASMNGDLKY
T1 sequence (Q9HBJ8 15-222 partner): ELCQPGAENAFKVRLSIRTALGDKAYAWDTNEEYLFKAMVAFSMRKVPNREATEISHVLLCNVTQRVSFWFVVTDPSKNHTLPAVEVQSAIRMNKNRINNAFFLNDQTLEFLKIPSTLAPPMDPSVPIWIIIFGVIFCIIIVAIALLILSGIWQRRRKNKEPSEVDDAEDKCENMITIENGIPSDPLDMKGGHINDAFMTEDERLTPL
Method: CHO cells with doxycycline-inducible expression of human SLC6A19 and TMEM27 were maintained in T150 cell culture treated flasks using cell culture media, which consisted of 1×DMEM/F12 (Gibco, 11330057), 10% Tet System-Approved FBS (Gibco, A4736401), 100 U/mL Penicillin-Streptomycin (Gibco, 15140122), 1×GlutaMAX™ Supplement (Gibco, 35050061), 1 mM Sodium Pyruvate (Gibco, 11360070), 1.1 mg/mL Sodium Bicarbonate (Gibco, 25080094), 5 μg/mL Blasticidin (InvivoGen, ant-bl-1), 150 μg/mL Hygromycin B Gold (InvivoGen, ant-hg-5), and 500 μg/mL G418 (Sigma-Aldrich, G8168-100 mL). In preparation for the assay, this media was aspirated and 5 mL of TryμLE™ Express Enzyme (Gibco, 12605010) was added to each flask to initiate cell dissociation. The flasks were then incubated (humidified, 37° C. with 5% CO2) for 2 minutes. After incubation, 10 mL of pre-warmed cell culture media was added to each flask. The cell suspension was collected and centrifuged for 5 minutes at 200xg.
The supernatant was aspirated and the pellet was resuspended in 5 mL pre-warmed cell culture media. The resuspended cells were counted using the Countess Cell Counting Chamber (Invitrogen) and the cell concentration of the suspension was readjusted to 1 million live cells/mL using pre-warmed cell culture media. 25 uL/well (25,000 cells/well) of readjusted cell suspension was dispensed into Poly-D-Lysine 384-well white/clear plates (Corning, 354660) using a MultiDrop Combi (Thermo Electron Corp). To induce expression of Human SLC6A19 and TMEM27, 25 uL/well of cell culture media containing 2 μg/mL doxycycline was added to the first 23 columns of each plate resulting in a final concentration of […] doxycycline. 25 μL/well of cell culture media was added to the last column of each plate, to act as negative control wells for Human SLC6A19 and TMEM27 expression. Assay plates were then incubated (humidified, 37° C. with 5% CO2) for 18 hours. After incubation, the media was aspirated and the wells were washed 4 times with pre-warmed HBSS (Sigma-Aldrich, H8264-1L) using an Apricot S-Pipette S2 (Apricot Designs), such that 5 uL/well HBSS was remaining at the end of each wash. […] At this step, the final in-well DMSO concentration in the assay plate is 0.5%. All compounds were plated in a duplicate 8-point dilution series that consisted of 3-fold dilutions. […] Afterwards, 15 uL/well of 3.2 mM hot:cold leucine solution (1:15000 ratio of L-[3,4,5-3H(N)] Leucine (Perkin Elmer, NET460001MC) to L-Leucine (Sigma-Aldrich, L8912-25G) diluted with HBSS (Sigma-Aldrich, H8264-1L)) was added using the Viaflo 384 (Integra), for a final concentration of 1.6 mM hot:cold leucine solution. The plates were then incubated (humidified, 37° C. with 5% CO2) for 20 minutes to conduct the uptake reaction. Immediately after the incubation, the plates were washed 4 times with HBSS (Sigma-Aldrich, H8264-1L) using the ELx405 Microplate Washer (Biotek) to terminate the uptake reaction. After the washes, 50 uL/well Ultima Gold Scintillation Cocktail (Perkin Elmer, 6013326) was added to each well using the Viaflo 384 (Integra). The plates were then incubated (humidified, 37° C. with 5% CO2) on a plate shaker at 200 rpm for 2 hours. After incubation, the plates were removed from the shaker and kept at room temperature for 15 minutes.
Liquid scintillation analysis was performed using the MicroBeta2 Microplate Counter (Perkin Elmer). Activity (%) was derived by normalizing the average of positive control compound treated wells to 0% and the average of DMSO (negative control) wells to 100%. Collaborative Drug Discovery software was used for graphing data.

human SLC6A19 [2] = biological target: T1, human SLC6A19; assay: Example B2: 13C6,15N-isoleucine uptake, RapidFire mass spectrometry, in CHO cells with doxycycline-inducible expression of human SLC6A19 and TMEM27; assay type: cell-based; conditions: read-out: SLC6A19_RapidFire Uptake Assay IC50
Method in brief: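 Labelled isoleucine (13C6,15N; 2 mM added) was given 20 min at 37 °C, following a 20-min compound pre-treatment (10-point 2-fold series, duplicate). Cells were doxycycline-induced CHO co-expressing human SLC6A19 and TMEM27. Intracellular label was quantified by RapidFire-MS peak areas against a 13C-leucine standard.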

Compound	IC50 (human SLC6A19 [1])	IC50 (human SLC6A19 [2])
CN(C)C(=O)N1CCC[C@@H](N(C)C(=O)NCc2cc3cc(Cl)ccc3[nH]2)C1 [Compound 208, (R)-3-(3-((5-chloro-1H-indol-2-yl)methyl)-1-methylureido)-N,N-dimethylpiperidine-1-carboxamide]	418 nM	–
CC1CC(C(=O)N2CCC[C@@H](N(C)C(=O)NCc3cc4cc(Cl)ccc4[nH]3)C2)C1 (stereo partly drawn) [Compound 117, (R)-3-((5-chloro-1H-indol-2-yl)methyl)-1-methyl-1-(1-(3-methylcyclobutane-1-carbonyl)piperidin-3-yl)urea]	608 nM	–
CCNC(=O)N1CCC[C@@H](N(C)C(=O)NCc2cc3cc(Cl)ccc3[nH]2)C1 [Compound 209, (R)-3-(3-((5-chloro-1H-indol-2-yl)methyl)-1-methylureido)-N-ethylpiperidine-1-carboxamide]	126 nM	–
CC(=O)N1CCC[C@@H](N(C)C(=O)NCc2cc3ccc(C)cc3[nH]2)C1 [Compound 214, (R)-1-(1-acetylpiperidin-3-yl)-1-methyl-3-((6-methyl-1H-indol-2-yl)methyl)urea]	1290 nM	–
CN(C(=O)NCc1cc2cc(Cl)ccc2[nH]1)[C@@H]1CCCN(C(=O)CCO)C1 [Compound 215, (R)-3-((5-chloro-1H-indol-2-yl)methyl)-1-(1-(3-hydroxypropanoyl)piperidin-3-yl)-1-methylurea]	637 nM	–
CN(C(=O)NCc1cc2cc(Cl)ccc2[nH]1)[C@@H]1CCCN(C(=O)Cn2cc(CCN)nn2)C1 [Compound 134, (R)-1-(1-(2-(4-(2-aminoethyl)-1H-1,2,3-triazol-1-yl)acetyl)piperidin-3-yl)-3-((5-chloro-1H-indol-2-yl)methyl)-1-methylurea]	3770 nM	–
CC(=O)N1CCC[C@@H](N(C)C(=O)NCCc2ccc(Cl)c(-c3cc4ccccc4[nH]3)c2)C1 [Compound 206, (R)-1-(1-acetylpiperidin-3-yl)-3-(4-chloro-3-(1H-indol-2-yl)phenethyl)-1-methylurea]	441 nM	–
COc1cc2[nH]c(CNC(=O)N(C)[C@@H]3CCCN(C(C)=O)C3)cc2cc1C [Compound 179, (R)-1-(1-acetylpiperidin-3-yl)-3-((6-methoxy-5-methyl-1H-indol-2-yl)methyl)-1-methylurea]	–	1210 nM
CN(C(=O)NCc1cc2cc(Cl)ccc2[nH]1)[C@@H]1CCCN(C(=O)C2(F)CC2)C1 [Compound 16, (R)-3-((5-chloro-1H-indol-2-yl)methyl)-1-(1-(1-fluorocyclopropane-1-carbonyl)piperidin-3-yl)-1-methylurea]	–	> 4290 nM
CCN(C(=O)NCc1cc2cc(F)c(F)cc2[nH]1)[C@@H]1CCCN(C(C)=O)C1 [Compound 169, (R)-1-(1-acetylpiperidin-3-yl)-3-((5,6-difluoro-1H-indol-2-yl)methyl)-1-ethylurea]	–	97.8 nM
CC(=O)N1CCC[C@@H](N(C)C(=O)NCc2cc3[nH]cc(C)c3cc2F)C1 [Compound 168, (R)-1-(1-acetylpiperidin-3-yl)-3-((5-fluoro-3-methyl-1H-indol-6-yl)methyl)-1-methylurea]	–	651 nM
CN(C(=O)NCc1cc2cc(Cl)ccc2[nH]1)[C@@H]1CCCN(C(=O)c2ccc(O)cc2F)C1 [Compound 63, (R)-3-((5-chloro-1H-indol-2-yl)methyl)-1-(1-(2-fluoro-4-hydroxybenzoyl)piperidin-3-yl)-1-methylurea]	–	935 nM
CC(=O)N1CCC[C@@H](N(C)C(=O)NCc2cc3ccc(OCc4cc(C)on4)cc3[nH]2)C1 [Compound 143, (R)-1-(1-acetylpiperidin-3-yl)-1-methyl-3-((6-((5-methylisoxazol-3-yl)methoxy)-1H-indol-2-yl)methyl)urea]	–	1090 nM
CN(C(=O)NCc1cc2cc(Cl)ccc2[nH]1)[C@@H]1CCCN(C(=O)C2CC(C)(O)C2)C1 (stereo partly drawn) [Compound 99, (R)-3-((5-chloro-1H-indol-2-yl)methyl)-1-(1-(3-hydroxy-3-methylcyclobutane-1-carbonyl)piperidin-3-yl)-1-methylurea]	–	745 nM
CC(C)C(=O)N1CCC[C@@H](N(C)C(=O)NCc2cc3cc(Cl)ccc3[nH]2)C1 [Compound 33, (R)-3-((5-chloro-1H-indol-2-yl)methyl)-1-(1-isobutyrylpiperidin-3-yl)-1-methylurea]	–	405 nM
CN(C(=O)NCc1cc2cc(Cl)ccc2[nH]1)[C@@H]1CCCN(c2ccon2)C1 [Compound 151, (R)-3-((5-chloro-1H-indol-2-yl)methyl)-1-(1-(isoxazol-3-yl)piperidin-3-yl)-1-methylurea]	–	40.4 nM
CN(C(=O)NCc1cc2cc(Cl)ccc2[nH]1)[C@@H]1CCCN(C(=O)CC2(O)CCC2)C1 [Compound 98, (R)-3-((5-chloro-1H-indol-2-yl)methyl)-1-(1-(2-(1-hydroxycyclobutyl)acetyl)piperidin-3-yl)-1-methylurea]	–	3000 nM
CN(C(=O)NCc1cc2cc(Cl)ccc2[nH]1)[C@@H]1CCCN(C(=O)CC2CC2)C1 [Compound 49, (R)-3-((5-chloro-1H-indol-2-yl)methyl)-1-(1-(2-cyclopropylacetyl)piperidin-3-yl)-1-methylurea]	–	371 nM
CN(C(=O)NCc1cc2cc(Cl)ccc2[nH]1)[C@@H]1CCCN(C(=O)C2CC2(F)F)C1 (stereo partly drawn) [Compound 19, 3-((5-chloro-1H-indol-2-yl)methyl)-1-((3R)-1-(2,2-difluorocyclopropane-1-carbonyl)piperidin-3-yl)-1-methylurea]	–	484 nM
CN(C(=O)NCc1cc2cc(Cl)ccc2[nH]1)[C@@H]1CCCN(C(=O)C(C)(O)C(F)(F)F)C1 (stereo partly drawn) [Compound 50, 3-((5-chloro-1H-indol-2-yl)methyl)-1-methyl-1-((3R)-1-(3,3,3-trifluoro-2-hydroxy-2-methylpropanoyl)piperidin-3-yl)urea]	–	4770 nM
Cc1cnc2ncc(C(=O)N3CCC[C@@H](N(C)C(=O)NCc4cc5cc(Cl)ccc5[nH]4)C3)n2c1 [Compound 102, (R)-3-((5-chloro-1H-indol-2-yl)methyl)-1-methyl-1-(1-(6-methylimidazo[1,2-a]pyrimidine-3-carbonyl)piperidin-3-yl)urea]	–	1800 nM
